Source: patent US7405228B2, “Antibacterial cyano-(substituted)-methylenepiperidinophenyl oxazolidinones targeting multiple ribonucleoprotein sites” (Wockhardt Limited, priority 2002, dated 2008)
In brackets after ≈: the same amount, converted by molar mass.

Experiments:
[1] = test system: Enterococcus faecalis 416 strain; assay: Propensity to resistance development (resistant colonies per plate); assay type: cell-based; details: E. faecalis 416 at 10^8 CFU, compound concentration 5 mcg/ml, 48 hours at 35° C.
Description: Enterococcus faecalis 416 strain at 10^8 CFU density level was spirally plated on Mueller Hinton agar containing 5 mcg/ml each of linezolid and representative compound of the invention. Plates were incubated at 35° C. for 48 hours and number of resistant colonies developed in presence of respective compounds were counted by automated counter.

E. faecium 367 LNZR = assay: MIC determination, linezolid resistant E. faecium 367 LNZR; assay type: cell-based; details: Enterococcus faecium, read-out: MIC E. faecium 367 LNZR
Description: E. faecium ATCC 19434 strain at a cell density of 10^6/ml was inoculated in Mueller Hinton broth medium containing Linezolid at a concentration of 5 and 7.5 mcg/ml. The stationary culture was incubated at 37° C. and inspected at every 24 hours to assess the formation of turbidity due to the onset of bacterial growth. […] A 50 microliter sample of turbid flask was plated on Mueller Hinton agar medium incorporated with linezolid at 7.5 mcg/ml. The agar plates were incubated for 48 hours at 37° C. for the formation of discrete colonies of linezolid-resistant strain of E. faecium (E. faecium 367 LNZR). MICs of resistant mutant E. faecium 367 LNZR and parent strain E. faecium ATCC 19434 were determined for linezolid by NCCLS method.
(§1) Cultures were further diluted 1:10 in Mueller Hinton broth. Using Denley's mutipoint inoculator, 10^4 cells were deposited on Mueller Hinton agar (Difco) containing range of 2 fold dilutions of test compounds. […] MIC is defined as minimum drug concentration that inhibits test organisms. For determining MIC of test compounds against Streptococcus pneumoniae, Mueller Hinton agar containing 5% sheep blood was employed.

S. aureus MRSA-32 LNZR = assay: MIC determination, linezolid resistant S. aureus MRSA-32 LNZR; assay type: cell-based; details: Staphylococcus aureus, 24 h, read-out: MIC MRSA 32 LNZR
Description: (§2) Infecting doses of organisms given by intraperitoneal route in 5% hog gastric mucin were 10^3-10^4 CFU (colony forming units)/animal for SPN 6303 and 10^8 CFU/animal for MRSA-32. In case of MRSA-32, Linezolid was administered by oral route, 1 and 4 h post infection, BID (twice a day) for 1 day and for SPN 6303 BID for 2 days. […] MICs of Methicillin Resistant Staphylococcus aureus-32 Linezolid resistant (MRSA-32 LNZR), S. pneumoniae 744 Linezolid resistant (SPN 744 LNZR) and parent Linezolid sensitive strains MRSA-32 and SPN 6303 were determined for Linezolid by NCCLS agar dilution method.
as §1

SPN 744 LNZR = assay: MIC determination, linezolid resistant SPN 744 LNZR; assay type: cell-based; details: Streptococcus pneumoniae, read-out: MIC SPN744 LNZR
Description: as §2, §1

SPN 49619 = assay: MIC determination, linezolid sensitive SPN 49619; assay type: cell-based; details: Streptococcus pneumoniae; linezolid sensitive strain, Table 3
MRSA 032 = assay: MIC determination, linezolid sensitive MRSA 032 (MRSA-32); assay type: cell-based; details: Staphylococcus aureus, read-out: MIC MRSA 32
Description: as §2, §1

SMILES	No. of colonies/plate [1]	MIC (E. faecium 367 LNZR)	MIC (S. aureus MRSA-32 LNZR)	MIC (SPN 744 LNZR)	MIC (SPN 49619)	MIC (MRSA 032)	melting point
CC(=O)NC[C@H]1CN(c2ccc(N3CCC(=CC#N)C(F)C3)c(F)c2)C(=O)O1 (mixture of isomers) [Example 56, (S)-N-{3-[4-(4-cyanomethylidene-3-fluoropiperidin-1-yl)-3-fluorophenyl]-2-oxo-oxazolidin-5-ylmethyl}-acetamide]	0						
N#C/C=C1\CCN(c2ccc(N3C[C@H](CNC(=O)C(F)F)OC3=O)cc2F)CC1F (stereo partly drawn) [Example 57, (S)-N-{3-[4-(4-cyanomethylidene-3-fluoropiperidin-1-yl)-3-fluorophenyl]-2-oxo-oxazolidin-5-ylmethyl}-difluoroacetamide]		6.25 µg/mL (≈ 14.7 µM)	12.5 µg/mL (≈ 29.3 µM)	6.25 µg/mL (≈ 14.7 µM)			
CC(C#N)=C1CCN(c2ccc(N3C[C@H](CNC(=O)C(F)F)OC3=O)cc2F)CC1 [Example 77, (S)-N-{3-[4-(4-(1-cyanoethylidene)-piperidin-1-yl)-3-fluorophenyl]-2-oxo-oxazolidin-5-ylmethyl}-difluoroacetamide]		6.25 µg/mL (≈ 14.8 µM)	12.5 µg/mL (≈ 29.6 µM)	6.25 µg/mL (≈ 14.8 µM)			
CC(=O)NC[C@H]1CN(c2ccc(N3CC/C(=C\C#N)C(F)C3)c(F)c2)C(=O)O1 (stereo partly drawn) [56 (E), E-(S)-N-{3-[4-(4-cyanomethylidene-3-fluoropiperidin-1-yl)-3-fluorophenyl]-2-oxo-oxazolidin-5-ylmethyl}-acetamide]		6.25 µg/mL (≈ 16 µM)	12.5 µg/mL (≈ 32 µM)	6.25 µg/mL (≈ 16 µM)	0.8 µg/mL (≈ 2.05 µM)	0.8 µg/mL (≈ 2.05 µM)	
CC(=S)NC[C@H]1CN(c2ccc(N3CCC(=C(C#N)C#N)CC3)c(F)c2)C(=O)O1 [Example 119, (S)-N-{3-[4-(4-(1,1-dicyano-methylidene)-piperidin-1-yl)-3-fluorophenyl]-2-oxo-oxazolidin-5-ylmethyl}-thioacetamide]					0.8 µg/mL (≈ 1.93 µM)	0.4 µg/mL (≈ 0.967 µM)	
CC(=O)NC[C@H]1CN(c2ccc(N3CC=C(CC#N)CC3)c(F)c2)C(=O)O1 [Example 159, (S)-N-{3-[4-(4-cyanomethyl-3,4-dehydropiperidin-1-yl)-3-fluorophenyl]-2-oxo-oxazolidin-5-ylmethyl}-acetamide]	1.5 × 10^1						132 °C
CC(=S)NC[C@H]1CN(c2ccc(N3CC/C(=C\C#N)C(F)C3)c(F)c2)C(=O)O1 (stereo partly drawn) [Example 60, (S)-N-{3-[4-(4-cyanomethylidene-3-fluoropiperidin-1-yl)-3-fluorophenyl]-2-oxo-oxazolidin-5-ylmethyl}-thioacetamide]		1.56 µg/mL (≈ 3.84 µM)	6.25 µg/mL (≈ 15.4 µM)	3.12 µg/mL (≈ 7.68 µM)	0.1 µg/mL (≈ 0.246 µM)	0.25 µg/mL (≈ 0.615 µM)	
CSC(C#N)=C1CCN(c2ccc(N3C[C@H](CNC(C)=O)OC3=O)cc2F)CC1 [Example 115, (S)-N-{3-[4-(4-(1-cyano-1-methylmercapto-methylidene)-piperidin-1-yl)-3-fluorophenyl]-2-oxo-oxazolidin-5-ylmethyl}-acetamide]		3.12 µg/mL (≈ 7.46 µM)	12.5 µg/mL (≈ 29.9 µM)	6.25 µg/mL (≈ 14.9 µM)	0.8 µg/mL (≈ 1.91 µM)	0.8 µg/mL (≈ 1.91 µM)	
CC(=O)NC[C@H]1CN(c2ccc(N3CCC(=C(Br)C#N)CC3)c(F)c2)C(=O)O1 [Example 117, (S)-N-{3-[4-(4-(1-cyano-1-bromo-methylidene)-piperidin-1-yl)-3-fluorophenyl]-2-oxo-oxazolidin-5-ylmethyl}-acetamide]		3.12 µg/mL (≈ 6.91 µM)	12.5 µg/mL (≈ 27.7 µM)	6.25 µg/mL (≈ 13.8 µM)	0.4 µg/mL (≈ 0.886 µM)	0.8 µg/mL (≈ 1.77 µM)	
CC(C#N)=C1CCN(c2ccc(N3C[C@H](CNC(=O)C(Cl)Cl)OC3=O)cc2F)CC1 [Example 79, (S)-N-{3-[4-(4-(1-cyanoethylidene)-piperidin-1-yl)-3-fluorophenyl]-2-oxo-oxazolidin-5-ylmethyl}-dichloroacetamide]					0.8 µg/mL (≈ 1.76 µM)	0.8 µg/mL (≈ 1.76 µM)	
CC1CN(c2ccc(N3C[C@H](CNC(N)=S)OC3=O)cc2F)CC/C1=C\C#N (stereo partly drawn) [Example 68, (S)-N-{3-[4-(4-cyanomethylidene-3-methylpiperidin-1-yl)-3-fluorophenyl]-2-oxo-oxazolidin-5-ylmethyl}-thiocarbamide]		3.12 µg/mL (≈ 7.73 µM)	6.25 µg/mL (≈ 15.5 µM)	3.12 µg/mL (≈ 7.73 µM)	0.4 µg/mL (≈ 0.991 µM)	0.4 µg/mL (≈ 0.991 µM)	
